Data on seven compounds can be found in ChEMBL document CHEMBL1158635, “Antitrypanosomal alkaloids from Polyalthia suaveolens (Annonaceae): their effects on three selected glycolytic enzymes of Trypanosoma brucei” (Bioorg Med Chem Lett, 2010).

Molecules are shown by their SMILES. Calls of active or inactive are those of the source. The calls are words filed in the database; no cut-off is given here.

Series [1] in a line: Inhibition of Trypanosoma brucei GAPDH expressed in Escherichia coli.
The nature of series [2]: Mixed-type reversible inhibition of Trypanosoma brucei GAPDH expressed in Escherichia coli at enzyme substrate complex by spectrophotometry analysis.
The nature of series [3]: Selectivity ratio of IC50 for rabbit muscle aldolase to IC50 for Trypanosoma brucei aldolase. Format: tissue-based. The settings on record: Muscle tissue.
The target in series [4] is T1, Fructose-bisphosphate aldolase A (Oryctolagus cuniculus, UniProt P00883).
T1 sequence (P00883 whole entry): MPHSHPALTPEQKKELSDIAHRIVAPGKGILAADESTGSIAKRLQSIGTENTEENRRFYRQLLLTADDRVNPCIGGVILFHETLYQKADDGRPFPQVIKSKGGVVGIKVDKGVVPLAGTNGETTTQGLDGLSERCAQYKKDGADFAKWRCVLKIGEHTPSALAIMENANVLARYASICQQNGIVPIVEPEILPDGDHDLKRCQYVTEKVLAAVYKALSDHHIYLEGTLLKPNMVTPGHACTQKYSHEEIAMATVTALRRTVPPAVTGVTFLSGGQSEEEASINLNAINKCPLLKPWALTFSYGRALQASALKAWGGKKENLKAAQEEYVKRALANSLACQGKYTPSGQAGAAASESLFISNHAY
Description: Inhibition of rabbit muscle aldolase.

The nature of series [5]: Mixed-type reversible inhibition of Trypanosoma brucei GAPDH expressed in Escherichia coli using NAD+ by spectrophotometry analysis.
Series [6] has as its target T2, ATP-dependent 6-phosphofructokinase, muscle type (Oryctolagus cuniculus) (UniProt P00511).
T2 sequence (whole entry): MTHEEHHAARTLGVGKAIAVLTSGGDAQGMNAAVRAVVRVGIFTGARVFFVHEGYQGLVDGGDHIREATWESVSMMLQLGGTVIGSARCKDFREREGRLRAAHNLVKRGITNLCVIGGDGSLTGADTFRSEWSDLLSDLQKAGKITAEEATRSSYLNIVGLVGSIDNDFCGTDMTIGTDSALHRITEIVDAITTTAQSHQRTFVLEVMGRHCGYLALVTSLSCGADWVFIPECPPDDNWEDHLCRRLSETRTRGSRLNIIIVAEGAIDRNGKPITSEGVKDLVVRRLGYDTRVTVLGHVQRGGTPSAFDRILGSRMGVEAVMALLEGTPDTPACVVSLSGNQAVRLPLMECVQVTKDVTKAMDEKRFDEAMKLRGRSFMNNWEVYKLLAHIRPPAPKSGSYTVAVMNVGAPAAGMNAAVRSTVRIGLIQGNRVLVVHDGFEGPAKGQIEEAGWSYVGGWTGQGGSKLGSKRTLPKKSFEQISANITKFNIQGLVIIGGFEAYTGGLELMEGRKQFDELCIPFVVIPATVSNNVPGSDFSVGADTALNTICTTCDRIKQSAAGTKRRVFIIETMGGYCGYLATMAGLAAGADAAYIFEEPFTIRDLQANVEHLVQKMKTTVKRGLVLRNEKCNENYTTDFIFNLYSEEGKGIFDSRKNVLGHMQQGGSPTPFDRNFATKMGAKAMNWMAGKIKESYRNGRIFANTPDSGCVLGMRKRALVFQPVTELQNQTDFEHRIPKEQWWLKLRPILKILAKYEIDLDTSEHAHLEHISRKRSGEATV
Description: Inhibition of rabbit muscle PFK at 500 uM.

For series [7], the target named is T3, ATP-dependent 6-phosphofructokinase (Trypanosoma brucei, UniProt O15648).
T3 sequence (O15648 whole entry): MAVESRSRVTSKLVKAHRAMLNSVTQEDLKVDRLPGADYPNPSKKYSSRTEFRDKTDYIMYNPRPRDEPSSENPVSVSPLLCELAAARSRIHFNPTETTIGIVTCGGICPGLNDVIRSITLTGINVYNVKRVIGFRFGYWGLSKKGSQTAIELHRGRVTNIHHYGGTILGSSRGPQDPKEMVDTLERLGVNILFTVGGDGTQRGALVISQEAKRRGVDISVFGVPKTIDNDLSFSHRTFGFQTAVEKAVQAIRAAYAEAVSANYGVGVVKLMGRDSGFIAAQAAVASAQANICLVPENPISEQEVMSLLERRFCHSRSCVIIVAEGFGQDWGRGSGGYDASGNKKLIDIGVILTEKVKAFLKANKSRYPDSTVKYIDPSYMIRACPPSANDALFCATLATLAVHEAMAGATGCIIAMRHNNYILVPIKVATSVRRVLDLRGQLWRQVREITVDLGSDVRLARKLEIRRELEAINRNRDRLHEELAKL
Description: Inhibition of Trypanosoma brucei PFK expressed in Escherichia coli.

Series [8] deals with Glyceraldehyde-3-phosphate dehydrogenase (Oryctolagus cuniculus, UniProt P46406). Put plainly: Inhibition of rabbit muscle GAPDH.
Sequence of Glyceraldehyde-3-phosphate dehydrogenase (P46406 whole entry): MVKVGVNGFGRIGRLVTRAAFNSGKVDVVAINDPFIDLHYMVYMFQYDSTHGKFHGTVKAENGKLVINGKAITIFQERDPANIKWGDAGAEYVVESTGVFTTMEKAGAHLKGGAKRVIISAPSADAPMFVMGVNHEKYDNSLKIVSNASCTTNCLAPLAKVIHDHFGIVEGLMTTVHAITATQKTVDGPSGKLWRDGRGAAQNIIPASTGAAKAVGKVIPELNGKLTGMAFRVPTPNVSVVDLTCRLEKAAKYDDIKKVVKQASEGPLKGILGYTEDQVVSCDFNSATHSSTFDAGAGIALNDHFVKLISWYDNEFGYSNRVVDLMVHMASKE
The test system of series [9] is Trypanosoma brucei brucei. Description: Antitrypanosomal activity against Trypanosoma brucei brucei 427 bloodstream form after 72 hrs by LILIT method. In kind it is functional. The note with it: for EC50: Trypanosoma brucei, 427, 72 h, read-out: ED50 (the source's name).
The subject of a further series is MRC5. Put plainly: Cytotoxicity against human MRC5 cells after 72 hrs by Alamar blue staining. The settings on record: mrc5, 72 h. In kind it is cell-based. In general terms: Alamar Blue is a resazurin reagent that responds to reducing activity.
Series [10] in a line: Inhibition of Trypanosoma brucei aldolase expressed in Escherichia coli.
The target in series [11] is T3, ATP-dependent 6-phosphofructokinase. Put plainly: Competitive reversible inhibition of Trypanosoma brucei PFK expressed in Escherichia coli using fructose-6-phosphate by spectrophotometry analysis.
The target in series [12] is T4, ATP-dependent 6-phosphofructokinase (Trypanosoma brucei) (UniProt O15648).
T4 sequence (whole entry): T3 sequence (O15648 whole entry)
Put plainly: Ratio of Ki/Km for Trypanosoma brucei PFK expressed in Escherichia coli using fructose-6-phosphate by spectrophotometry analysis.

The target of series [13] is Glyceraldehyde-3-phosphate dehydrogenase (Oryctolagus cuniculus) (UniProt P46406). Description: Inhibition of rabbit muscle GAPDH at 3000 uM.
Sequence of Glyceraldehyde-3-phosphate dehydrogenase (Oryctolagus cuniculus) (P46406 whole entry, looked up): as the sequence (P46406 whole entry) above
In series [14] the test system is Trypanosoma brucei. Description: Inhibition of Trypanosoma brucei aldolase expressed in Escherichia coli at 100 uM.
Series [15] addresses T2, ATP-dependent 6-phosphofructokinase, muscle type (Oryctolagus cuniculus). Put plainly: Inhibition of rabbit muscle PFK at 170 uM.
Series [16] has as its target T4, ATP-dependent 6-phosphofructokinase (Trypanosoma brucei). Description: Inhibition of Trypanosoma brucei PFK expressed in Escherichia coli at 690 uM.
The target of series [17] is Glyceraldehyde-3-phosphate dehydrogenase (Oryctolagus cuniculus) (UniProt P46406). Put plainly: Inhibition of rabbit muscle GAPDH at 69 uM.
Series [18] has as its system Trypanosoma brucei. Description: Inhibition of Trypanosoma brucei aldolase expressed in Escherichia coli at 140 uM.
In series [19] the target is T5, Fructose-bisphosphate aldolase A (Oryctolagus cuniculus) (UniProt P00883).
T5 sequence (whole entry): T1 sequence (P00883 whole entry)
Put plainly: Inhibition of rabbit muscle aldolase at 280 uM.

Series [20] addresses T2, ATP-dependent 6-phosphofructokinase, muscle type (Oryctolagus cuniculus). Description: Inhibition of rabbit muscle PFK at 690 uM.
Series [21] has as its system Trypanosoma brucei. Description: Inhibition of Trypanosoma brucei GAPDH expressed in Escherichia coli at 278 uM.
The target of series [22] is T2, ATP-dependent 6-phosphofructokinase, muscle type (Oryctolagus cuniculus). Description: Inhibition of rabbit muscle PFK at 94 uM.

Regarding `CC1(C)[C@H](O)CC[C@]2(C)[C@@H]3C[C@@H]4Nc5ccccc5[C@@H]4[C@]3(C)CC[C@@H]12` [POLYVEOLINE], the IC50 turned out to be 110 µM in series [1]; 270 µM in series [4]; 30 µM in [7]; 620 µM in [8]; 80 µM in [10]. In addition, the Ki worked out at 50 µM in series [2] and 18 µM in series [5]. In series [3], the Ratio IC50 was 3. In addition, the inhibition entry in series [6] was “inactive”. In addition, the EC50 in series [9] was 54 µM. Further, the Activity result with MRC5 was “Toxic”.

For the compound `Nc1nc(N)nc(Nc2ccc([As]3SCC(CO)S3)cc2)n1` (stereo unspecified) [MELARSOPROL], in [9], the EC50 is 0.00395 µM.

`CC1(C)C(=O)CC[C@@]2(C)[C@H]1CC[C@]1(C)[C@H]2Cc2cc3ccccc3n21` [POLYSIN] showed a Ki in series [11] of 9 µM. Also, the Ki/Km in series [12] was 0.05. Also, in the series on MRC5, the Activity entry is given as “Toxic”.

For `CC1(C)C(=O)CC[C@]2(C)[C@H]3Cc4cc5ccccc5n4[C@]3(C)CC[C@@H]12`, the Ki/Km in series [12] is 0.05. Also, in the series on MRC5, the Activity result was “Toxic”.

In the case of `CC1(C)C(=O)CC[C@]2(C)C3Cc4cc5ccccc5n4[C@]3(C)CC[C@@H]12` (stereo partly specified), the IC50 in [1] was 1050 µM; in [4] it was 87 µM; in series [7], 20 µM. The inhibition result in series [13] was “inactive”. Moreover, the inhibition was 8% in the series with Trypanosoma brucei [14] and 18% in series [15]. In [11], the Ki was found to be 10 µM. In addition, the EC50 in series [9] is 18 µM.

For the compound `CC(=O)N1c2ccccc2[C@H]2[C@@H]1C[C@@H]1[C@@]2(C)CC[C@H]2C(C)(C)[C@H](O)CC[C@]12C`, the inhibition in series [16] came out at 28%; in [17], 10%; in the series on Trypanosoma brucei [18], 11%; in series [20], 12%; in the series on Trypanosoma brucei [21], 10%. In addition, the inhibition entry in series [19] was “inactive”. In series [9], the EC50 was found to be 32 µM. For the same compound, the Activity entry with MRC5 is “Toxic”.

As for `CC(=O)O[C@H]1CC[C@]2(C)[C@H]3Cc4cc5ccccc5n4[C@]3(C)CC[C@H]2C1(C)C`, the IC50 in [1] was determined as 110 µM; in series [4], 150 µM; in [7] it was 170 µM; in [8], 2050 µM; in series [10], 0.5 µM. Besides, the inhibition in series [22] came to 16%. Besides, the ED50 result in [9] is “inactive”. Moreover, in the series on MRC5, the Activity result is on record as “Toxic”.

One may read the IC50 as the concentration that inhibits the measured activity by half. The low end stands for inhibition by little substance, the high end for a need for much substance. One may read the Ki as a dissociation constant, usually derived from enzyme kinetics or from competition with a known ligand. Lower therefore signals a stronger hold on the target. One may read the inhibition as how much of the control response was suppressed.
